Measured values as given in US20260014147A1, “STAT6 DEGRADERS” (Gilead Sciences, Inc., priority 2024, published 2026).

Molecular target: T1, STAT6 (endogenous, HiBiT-tagged) in HeLa LgBiT clone 4.14 cells (Homo sapiens, UniProt P42226)
T1 construct: These cells express endogenous STAT6; host or cells: HeLa LgBiT clone 4.14
T1 sequence (P42226 1-847): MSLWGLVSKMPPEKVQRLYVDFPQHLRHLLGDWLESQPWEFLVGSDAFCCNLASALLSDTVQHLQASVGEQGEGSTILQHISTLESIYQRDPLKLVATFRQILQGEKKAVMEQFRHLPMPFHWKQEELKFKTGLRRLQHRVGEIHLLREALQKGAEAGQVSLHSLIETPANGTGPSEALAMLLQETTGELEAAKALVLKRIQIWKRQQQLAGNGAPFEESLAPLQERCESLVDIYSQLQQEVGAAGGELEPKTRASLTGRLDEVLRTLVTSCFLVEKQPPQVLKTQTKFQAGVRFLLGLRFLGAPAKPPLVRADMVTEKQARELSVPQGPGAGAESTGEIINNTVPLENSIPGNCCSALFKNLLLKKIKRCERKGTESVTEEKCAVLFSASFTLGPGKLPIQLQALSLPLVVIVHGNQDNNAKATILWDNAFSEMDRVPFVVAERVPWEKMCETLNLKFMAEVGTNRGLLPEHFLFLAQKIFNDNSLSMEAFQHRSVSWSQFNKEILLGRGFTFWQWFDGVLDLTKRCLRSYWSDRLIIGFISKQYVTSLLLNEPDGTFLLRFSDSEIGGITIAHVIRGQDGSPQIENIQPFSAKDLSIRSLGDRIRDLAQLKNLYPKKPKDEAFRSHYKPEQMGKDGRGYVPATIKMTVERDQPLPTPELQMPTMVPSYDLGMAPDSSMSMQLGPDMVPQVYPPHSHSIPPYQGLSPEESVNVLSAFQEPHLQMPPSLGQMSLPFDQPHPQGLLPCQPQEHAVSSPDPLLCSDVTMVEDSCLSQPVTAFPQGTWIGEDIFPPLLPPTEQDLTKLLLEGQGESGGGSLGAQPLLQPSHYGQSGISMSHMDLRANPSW
Experiment: STAT6 Degrader Assay (HiBiT based, HeLa LgBiT clone 4.14 cells, luminescence, DC50)
Format: cell-based
Conditions: DC50 provided for test compounds with >80% Emax, geometric mean, read-out: STAT6 degradation DC50
Procedure: This was a HiBit based assay. A HeLa cell line stably transfected with a small protein, LgBit (Large Bit) was obtained from Promega. These cells express endogenous STAT6. A small 11 amino acid gene sequence (HiBiT) was inserted in the STAT6 gene using CRISPR technology. Once STAT6 protein is expressed in the cells, the HiBiT sequence will bind the LgBit in the cells resulting in a functional NanoBiT protein, giving a luminescent tag to STAT6. Single cell clones were prepared and the clone 4.14 was selected for the assay based on that clone showing high luminescence, high STAT6 phosphorylation upon stimulation with IL-4, and inhibition of luminescence when cells were treated with STAT6 siRNA. HeLa LgBiT clone 4.14 cells were suspended in DMEM with 10% FCS, 1% Pen/Strep, Na-pyrovate and Hygromycin B, at a concentration of […]. 5000 cells were added pr well of a 384 well plate and 20 nL of compound was added by Echo® liquid handler. NN6394A (terfenadine, a toxic compound) was added to control wells at 50 µM concentration to establish the assay window. In these wells the cells are dead which equals 100% degradation of STAT6. After 4-24 h of incubation at 37° C. under 5% CO2/95% air, […] substrate (Nano-GLO®) was added to the wells and the plates were centrifuged and incubated for 0.5 h. The luminescence in the wells as a measure of non-degraded STAT6 was measured in a plate reader (BMG Pherastar FSX). The dose-response curves for Examples 2a2, 2t1, 2 h3, and 2r1 are shown below (where percent degradation is plotted vs. test compound concentration in M on a log-scale).

DC50 [nM]	Compound
38.8	C[C@@H]1CN(c2ccc(NC3CCC(=O)NC3=O)cc2F)CCN1CC1CCN(C(=O)c2ccc(C3CCN(Cc4cc5c(-c6ccc(N)nc6)ccnc5n4C)CC3)cc2)CC1 (stereo partly drawn) [Example 2f6, 3-((4-((R)-4-((1-(4-(1-((4-(6-aminopyridin-3-yl)-1-methyl-1H-pyrrolo[2,3-b]pyridin-2-yl)-methyl)-piperidin-4-yl)benzoyl)piperidin-4-yl)methyl)-3-methylpiperazin-1-yl)-3-fluorophenyl)amino)-piperidine-2,6-dione]
6.6	COCc1nc2cc(-c3ccnc4c3cc(CN3CCC(c5ccc(C(=O)N6CCC(CN7CCN(c8ccc(NC9CCC(=O)NC9=O)cc8F)C[C@H]7C)CC6)cc5)CC3)n4C)ccc2[nH]1 (stereo partly drawn) [Example 2f7, 3-((3-fluoro-4-((R)-4-((1-(4-(1-((4-(2-(methoxymethyl)-1H-benzo[d]imidazol-5-yl)-1-methyl-1H-pyrrolo[2,3-b]pyridin-2-yl)methyl)piperidin-4-yl)benzoyl)piperidin-4-yl)methyl)-3-methylpiperazin-1-yl)phenyl)-amino)piperidine-2,6-dione]
19.1	C[C@@H]1CN(c2ccc(NC3CCC(=O)NC3=O)cc2F)CCN1CC1CCN(C(=O)c2ccc(C3CCN(Cc4cc5c(-c6ccc7[nH]ncc7c6)ccnc5n4C)CC3)cc2)CC1 (stereo partly drawn) [Example 2f8, 3-((4-((R)-4-((1-(4-(1-((4-(1H-indazol-5-yl)-1-methyl-1H-pyrrolo[2,3-b]pyridin-2-yl)methyl)-piperidin-4-yl)benzoyl)piperidin-4-yl)methyl)-3-methylpiperazin-1-yl)-3-fluorophenyl)amino)piperidine-2,6-dione]
48.3	C[C@@H](c1cc2c(-c3ccc(N)nc3)ccnc2n1C)N1CCC(c2ccc(C(=O)N3CCN(CC4CCN(c5ccc(NC6CCC(=O)NC6=O)cc5F)CC4)CC3)cc2)CC1 (stereo partly drawn) [Example 2g63, 3-((4-(4-((4-(4-(1-((S)-1-(4-(6-aminopyridin-3-yl)-1-methyl-1H-pyrrolo[2,3-b]pyridin-2-yl)ethyl)piperidin-4-yl)benzoyl)piperazin-1-yl)methyl)piperidin-1-yl)-3-fluorophenyl)amino)piperidine-2,6-dione]
66.3	Cn1c(CN2CCC(c3ccc(C(=O)N4CCC(CN5CCC(N6CCC(c7ccc(NC8CCC(=O)NC8=O)cc7F)CC6)C(F)(F)C5)CC4)cc3)CC2)cc2c(-c3ccc4[nH]ncc4c3)ccnc21 (centres unmarked) [Example 2h1, 3-((4-(1′-((1-(4-(1-((4-(1H-indazol-5-yl)-1-methyl-1H-pyrrolo[2,3-b]pyridin-2-yl)methyl)-piperidin-4-yl)benzoyl)piperidin-4-yl)methyl)-3′, 3′-difluoro-[1,4′-bipiperidin]-4-yl)-3-fluorophenyl)-amino)piperidine-2,6-dione]

Same assay, conditions: Emax provided for test compounds with <80% Emax (and 2c15), geometric mean, read-out: STAT6 degradation Emax

Emax [%]	Compound
20 to 30	C[C@H]1CN(c2ccc(NC3CCC(=O)NC3=O)cc2F)CCN1CC1CCN(C(=O)c2ccc(C3CCN(Cc4cc5c(-c6ccc(N)nc6)ccnc5n4C)CC3)cc2)CC1 (stereo partly drawn) [Example 2f3, 3-((4-((S)-4-((1-(4-(1-((4-(6-aminopyridin-3-yl)-1-methyl-1H-pyrrolo[2,3-b]pyridin-2-yl)methyl)piperidin-4-yl)benzoyl)piperidin-4-yl)methyl)-3-methylpiperazin-1-yl)-3-fluorophenyl)amino)-piperidine-2,6-dione]
50 to 60	COCc1nc2cc(-c3ccnc4c3cc(CN3CCC(c5ccc(C(=O)N6CCC(CN7CCN(c8ccc(NC9CCC(=O)NC9=O)cc8F)C[C@@H]7C)CC6)cc5)CC3)n4C)ccc2[nH]1 (stereo partly drawn) [Example 2f4, 3-((3-fluoro-4-((S)-4-((1-(4-(1-((4-(2-(methoxymethyl)-1H-benzo[d]imidazol-5-yl)-1-methyl-1H-pyrrolo[2,3-b]pyridin-2-yl)methyl)piperidin-4-yl)benzoyl)piperidin-4-yl)methyl)-3-methylpiperazin-1-yl)phenyl)-amino)piperidine-2,6-dione]
50 to 60	C[C@H]1CN(c2ccc(NC3CCC(=O)NC3=O)cc2F)CCN1CC1CCN(C(=O)c2ccc(C3CCN(Cc4cc5c(-c6ccc7[nH]ncc7c6)ccnc5n4C)CC3)cc2)CC1 (stereo partly drawn) [Example 2f5, 3-((4-((S)-4-((1-(4-(1-((4-(1H-indazol-5-yl)-1-methyl-1H-pyrrolo[2,3-b]pyridin-2-yl)methyl)piperidin-4-yl)benzoyl)piperidin-4-yl)methyl)-3-methylpiperazin-1-yl)-3-fluorophenyl)amino)piperidine-2,6-dione]
< 20	Cn1c(CN2CCC(c3ccc(C(=O)N4CCC(CN5CCC(n6ncc7c(NC8CCC(=O)NC8=O)cccc76)CC5)CC4)cc3)CC2)cc2c(-c3ccc4[nH]ncc4c3)ccnc21 (centres unmarked) [Example 2g1, 3-((1-(1-((1-(4-(1-((4-(1H-indazol-5-yl)-1-methyl-1H-pyrrolo[2,3-b]pyridin-2-yl)methyl)-piperidin-4-yl)benzoyl)piperidin-4-yl)methyl)piperidin-4-yl)-1H-indazol-4-yl)amino)piperidine-2,6-dione]

The remaining lines, values behind:

Compound	Emax [%]
Cc1cc(C(=O)N2CCn3nc(CN4CCC(c5ccc(NC6CCC(=O)NC6=O)cc5F)CC4)cc3C2)cnc1C1=CCN(Cc2cc3c(-c4ccc(N)nn4)ccnc3n2C)CC1 (centres unmarked) [Example 2c48, 3-((4-(1-((5-(1′-((4-(6-aminopyridazin-3-yl)-1-methyl-1H-pyrrolo[2,3-b]pyridin-2-yl)methyl)-3-methyl-1′, 2′, 3′, 6′-tetrahydro-[2,4′-bipyridine]-5-carbonyl)-4,5,6,7-tetrahydropyrazolo[1,5-a]pyrazin-2-yl)methyl)piperidin-4-yl)-3-fluorophenyl)amino)piperidine-2,6-dione]	< 20
COCc1nc2cc(-c3ccnc4c3cc(CN3CCC(c5ccc(C(=O)N6CCC(CN7CCN(Cc8ccc(-n9cc(N%10CCC(=O)NC%10=O)nn9)cc8)CC7)CC6)cc5)CC3)n4C)ccc2[nH]1 [Example 2c56, 1-(1-(4-((4-((1-(4-(1-((4-(2-(methoxymethyl)-1H-benzo[d]imidazol-5-yl)-1-methyl-1H-pyrrolo[2,3-b]pyridin-2-yl)methyl)piperidin-4-yl)benzoyl)piperidin-4-yl)methyl)piperazin-1-yl)methyl)-phenyl)-1H-1,2,3-triazol-4-yl) dihydropyrimidine-2,4 (1H,3H)-dione]	< 20
CNc1ccc(-c2ccnc3c2cc([C@@H](C)N2CC=C(c4c(C)cc(C(=O)N5CCC(CCn6cc(-c7ccc(NC8CCC(=O)NC8=O)cc7)nn6)CC5)cc4F)CC2)n3C)cn1 (stereo partly drawn) [Example 2c57, 3-((4-(1-(2-(1-(3-fluoro-5-methyl-4-(1-((R)-1-(1-methyl-4-(6-(methylamino)pyridin-3-yl)-1H-pyrrolo[2,3-b]pyridin-2-yl)ethyl)-1,2,3,6-tetrahydropyridin-4-yl)benzoyl)piperidin-4-yl)ethyl)-1H-1,2,3-triazol-4-yl)phenyl)amino)piperidine-2,6-dione]	< 20
Cn1c(CN2CCC(c3ccc(C(=O)N4CCC(CN5CCN(c6ccc(C(=O)NC7CCC(=O)NC7=O)nn6)CC5)CC4)cc3)CC2)cc2c(-c3ccc4[nH]ncc4c3)ccnc21 (centres unmarked) [Example 2d1, 6-(4-((1-(4-(1-((4-(1H-indazol-5-yl)-1-methyl-1H-pyrrolo[2,3-b]pyridin-2-yl)methyl)-piperidin-4-yl)benzoyl)piperidin-4-yl)methyl)piperazin-1-yl)-N-(2,6-dioxopiperidin-3-yl) pyridazine-3-carboxamide]	50 to 60
Cn1c(CN2CCC(c3ccc(C(=O)N4CCC(CN5CCN(C(=O)c6ccc(NC7CCC(=O)NC7=O)cc6F)CC5)CC4)cc3)CC2)cc2c(-c3ccc(N)nc3)ccnc21 (centres unmarked) [Example 2e2, 3-((4-(4-((1-(4-(1-((4-(6-aminopyridin-3-yl)-1-methyl-1H-pyrrolo[2,3-b]pyridin-2-yl)methyl)-piperidin-4-yl)benzoyl)piperidin-4-yl)methyl)piperazine-1-carbonyl)-3-fluorophenyl)amino)piperidine-2,6-dione]	< 20
